Structures can show the parent of a compound that is named as a salt. Where two headings read alike, the source gives them in different places.

The results in this text go back to patent US6900189B2, “Analgesic and glucosamine compositions” (priority 2000, dated 2005).

The subject of assay [1] is acetylcholine induced abdominal constriction. The experiment in a line: prevention of acetylcholine induced abdominal constriction in mice. To be noted: for ED50: Mus musculus, 0.5 h, analgesic alone, oral, mice, acetylcholine challenge 30 minutes after treatment. The class given is in vivo. As to the method:
Mature, male Swiss-Webster mice (weighing 25-30 g) were utilized in determining the analgesic effects of the compositions. The mice were all dosed orally with glucosamine sulfate, which was completely dissolved in distilled water, and a selected analgesic (ibuprofen, diclofenac, tramadol HCl, or acetaminophen), which was completely dissolved in distilled water or in distilled water containing 2% by volume of TWEEN®-80 containing 100% polysorbate 80. Mice were dosed at 10 mL/kg.
The procedure used in detecting and comparing the analgesic activity of different classes of analgesic drugs was the prevention of acetylcholine induced abdominal constriction in mice.
Mice were treated with various doses of glucosamine sulfate alone, analgesic alone, combined doses of glucosamine sulfate and analgesic, or vehicle such as distilled water containing 2% by volume of TWEEN®-80. Intraperitoneal injection of a challenge dose of acetylcholine bromide was administered 30 minutes after treatment. […] For scoring purposes an “abdominal constriction” was defined as a contraction of the abdominal musculature accompanied by arching of the back and extension of the limbs. […] Each mouse was tested only once.
Doses of the combinations were coded to permit complete randomization of the tests.

Assay [2] has the same test system. The assay is described as above. Format: in vivo.

For `CC(=O)Nc1ccc(O)cc1` [Acetaminophen], the No. protected/no. tested in assay [1] (acetaminophen 62.5 mg/kg alone) was 1/10; in assay [1] (acetaminophen 125 mg/kg alone), 4/10; in assay [1] (acetaminophen 250 mg/kg alone), 8/10.

By ED50 is commonly meant the dose that gives a 50% effect, or the effect in half of the subjects. As for `CC(=O)Oc1ccccc1C(=O)O` [Aspirin], in assay [1], the ED50 was determined as 109 mg/kg. Also, the No. protected/no. tested in assay [2] (ASA 50 mg/kg alone) is on record as 1/10; in assay [2] (ASA 100 mg/kg alone), 4/10; in assay [2] (ASA 150 mg/kg alone), 8/10; in assay [2] (ASA 200 mg/kg alone), 7/10.

Consider `O=C(O)Cc1ccccc1Nc1c(Cl)cccc1Cl` [Diclofenac], for which the ED50 in assay [1] is 1.14 mg/kg.

For `CC(C)Cc1ccc(C(C)C(=O)O)cc1` (centres unmarked) [Ibuprofen, 2-(p-isobutylphenyl)propionic acid], the ED50 in assay [1] came to 26.1 ± 3.41 mg/kg. Besides, the No. protected/no. tested was 1/10 in assay [1] (ibuprofen 10 mg/kg alone); 1/10 in assay [1] (ibuprofen 13.91 mg/kg alone); 4/10 in assay [1] (ibuprofen 20.0 mg/kg alone); 8/10 in assay [1] (ibuprofen 41.74 mg/kg alone); 9/10 in assay [1] (ibuprofen 100 mg/kg alone); 6/10 in assay [2] (ibuprofen 27.8 mg/kg alone). In addition, the No. protected/no. tested in assay [2] (ibuprofen 30.0 mg/kg alone) was 6/10.

In the case of `COc1ccc2c(c1)c(CC(=O)O)c(C)n2C(=O)c1ccc(Cl)cc1` [Indomethacin], the ED50 in assay [1] is 3.66 mg/kg. The No. protected/no. tested in assay [2] (indomethacin 2.5 mg/kg alone) is listed as 4/10; in assay [2] (indomethacin 5.0 mg/kg alone), 6/10; in assay [2] (indomethacin 10.0 mg/kg alone), 7/10.

Turning to `CC(C)Cc1ccc([C@H](C)C(=O)O)cc1` [S(+) Ibuprofen], the No. protected/no. tested was 2/10 in assay [2] (Group A: S(+) ibuprofen 15 mg/kg alone), 4/10 in assay [2] (Group B: S(+) ibuprofen 30 mg/kg alone), 6/10 in assay [2] (Group C: S(+) ibuprofen 60 mg/kg alone) and 7/10 in assay [2] (Group D: S(+) ibuprofen 120 mg/kg alone).

`COc1cccc(C2(O)CCCCC2CN(C)C)c1` (centres unmarked) [Tramadol HCl]: the ED50 in assay [2] (Mus musculus, 0.5 h, read-out: ED50 (alone)) is 8.05 mg/kg.
